Test results published in PubChem BioAssay AID192 (DTP/NCI, 2004).
Values joined by “and” are separate entries in the source; they are usually repeats but may differ in a detail not shown here. Equal entries are not always repeated. Toxic doses and inconclusive results are not listed.

Test system: BDF1 mice, B16 melanoma ip, median survival T/C
Test: NCI In Vivo Anticancer Drug Screen. Data for tumor model B16 Melanoma (intraperitoneal) in B6D2F1 (BDF1) mice
Conditions: endpoint: median survival time, higher = longer survival
Method: The antitumor activity of compounds was measured in mice bearing transplantable tumors. Survival or tumor size were measured and the results are expressed as the measurement made in the treated group (T) divided by the measurement made in the vehicle treated control group (C). The tumor model used in this assay is B16 Melanoma (intraperitoneal) in B6D2F1 (BDF1) mice

[1] = dose: 100.0 mg/kg/injection, schedule: Q01DX009 (ip), vehicle: saline with Tween-80
[2] = dose: 200.0 mg/kg/injection, schedule: Q01DX009 (ip), vehicle: saline with Tween-80
[3] = dose: 400.0 mg/kg/injection, schedule: Q01DX009 (ip), vehicle: saline with Tween-80
[4] = dose: 0.39 mg/kg/injection, schedule: Q01DX009 (ip), vehicle: Klucel (hydroxypropylcellulose) (HPC)
[5] = dose: 3.12 mg/kg/injection, schedule: Q01DX009 (ip), vehicle: Klucel (hydroxypropylcellulose) (HPC)
[6] = dose: 6.25 mg/kg/injection, schedule: Q01DX009 (ip), vehicle: Klucel (hydroxypropylcellulose) (HPC)
[7] = dose: 12.5 mg/kg/injection, schedule: Q01DX009 (ip), vehicle: Klucel (hydroxypropylcellulose) (HPC)
[8] = dose: 100.0 mg/kg/injection, schedule: Q01DX009 (ip), vehicle: Klucel (hydroxypropylcellulose) (HPC)

With COC1C(OC(=O)c2ccc(C)[nH]2)C(O)C(Oc2ccc3c(O)c(NC(=O)c4ccc(O)c(CC=C(C)C)c4)c(=O)oc3c2Cl)OC1(C)C (stereo not given) the T/C (dose: 6.25 mg/kg/injection, schedule: Q01DX009 (ip), vehicle: other) was 101 % of control, the T/C (dose: 12.5 mg/kg/injection, schedule: Q01DX009 (ip), vehicle: other) was 97 % of control and 124 % of control and the T/C (dose: 25.0 mg/kg/injection, schedule: Q01DX009 (ip), vehicle: other) was 90 % of control and 91 % of control. The T/C (dose: 50.0 mg/kg/injection, schedule: Q01DX009 (ip), vehicle: other) was 94 % of control.

With COc1cc2c(cc1OC)C(C#N)N(C(=O)c1ccccc1)C=C2 (stereo not given) the T/C (dose: 0.1 mg/kg/injection, schedule: Q01DX009 (ip), vehicle: other) was 102 % of control, the T/C (dose: 0.19 mg/kg/injection, schedule: Q01DX009 (ip), vehicle: other) was 104 % of control and the T/C (dose: 0.38 mg/kg/injection, schedule: Q01DX009 (ip), vehicle: other) was 107 % of control. For the same molecule, the T/C (dose: 0.75 mg/kg/injection, schedule: Q01DX009 (ip), vehicle: other) was 111 % of control and the T/C (dose: 1.5 mg/kg/injection, schedule: Q01DX009 (ip), vehicle: other) was 112 % of control.

With CC(=O)Nc1ccc2c(Nc3ccc(NS(C)(=O)=O)cc3)c3ccccc3nc2c1 the T/C (dose: 3.8 mg/kg/injection, schedule: Q01DX009 (ip), vehicle: saline sonified) was 112 % of control, the T/C (dose: 7.5 mg/kg/injection, schedule: Q01DX009 (ip), vehicle: saline sonified) was 110 % of control and the T/C (dose: 15.0 mg/kg/injection, schedule: Q01DX009 (ip), vehicle: saline with Tween-80) was 162 % of control. The T/C (dose: 30.0 mg/kg/injection, schedule: Q01DX009 (ip), vehicle: saline sonified) was 164 % of control, the T/C (dose: 30.0 mg/kg/injection, schedule: Q01DX009 (ip), vehicle: saline with Tween-80) was 185 % of control and the T/C (dose: 200.0 mg/kg/injection, schedule: Q01DX001 (ip), vehicle: saline sonified) was 155 % of control. The T/C (dose: 400.0 mg/kg/injection, schedule: Q01DX001 (ip), vehicle: saline sonified) was 194 % of control.

In the case of C/C(C/C(C)=N/O)=N/O.C/C(C/C(C)=N/O)=N\O.[Cl][Rh][Cl], the T/C (dose: 50.0 mg/kg/injection, schedule: Q01DX009 (ip), vehicle: saline with Tween-80) is reported as 96 % of control, the T/C [1] is reported as 98 % of control and the T/C [2] is reported as 96 % of control. The T/C [3] was 92 % of control.

For COC(=O)/C(C)=C/C=C/C(OC)C(OC(N)=O)/C(C)=C/C(C)C(O)C(CC(C)CC1=C(N)C(=O)C=C(N)C1=O)OC (stereo not given), the T/C (dose: 12.5 mg/kg/injection, schedule: Q01DX005 (ip), vehicle: other) was 94 % of control, the T/C (dose: 25.0 mg/kg/injection, schedule: Q01DX005 (ip), vehicle: other) was 95 % of control and the T/C (dose: 50.0 mg/kg/injection, schedule: Q01DX005 (ip), vehicle: other) was 108 % of control. The T/C (dose: 100.0 mg/kg/injection, schedule: Q01DX005 (ip), vehicle: other) was 93 % of control.

For N=C(N)c1ccc(/C=C/c2ccc(C(=N)N)cc2)cc1, the T/C (dose: 16.0 mg/kg/injection, schedule: Q01DX009 (ip), vehicle: saline with Tween-80) was 98 % of control and the T/C (dose: 32.0 mg/kg/injection, schedule: Q01DX009 (ip), vehicle: saline with Tween-80) was 93 % of control.

In the case of Oc1ccc2ccccc2c1N=Nc1ccc(F)cc1, the T/C [1] is reported as 119 % of control and the T/C [3] is reported as 108 % of control.

For OC(CCN1CCCCC1)(c1ccccc1)C1CC2C=CC1C2 (stereo not given), the T/C (dose: 0.19 mg/kg/injection, schedule: Q01DX009 (ip), vehicle: Klucel (hydroxypropylcellulose) (HPC)) was 96 % of control, the T/C [4] was 100 % of control and the T/C (dose: 0.78 mg/kg/injection, schedule: Q01DX009 (ip), vehicle: Klucel (hydroxypropylcellulose) (HPC)) was 103 % of control. For the same molecule, the T/C (dose: 1.56 mg/kg/injection, schedule: Q01DX009 (ip), vehicle: Klucel (hydroxypropylcellulose) (HPC)) was 100 % of control, the T/C [5] was 115 % of control and the T/C [6] was 94 % of control. For the same molecule, the T/C [7] was 92 % of control and 96 % of control and the T/C [8] was 89 % of control.

With O=NNc1ccc(Cl)cn1 the T/C (dose: 1.5 mg/kg/injection, schedule: Q01DX009 (ip), vehicle: water) was 104 % of control, the T/C (dose: 3.0 mg/kg/injection, schedule: Q01DX009 (ip), vehicle: water) was 118 % of control and the T/C (dose: 24.0 mg/kg/injection, schedule: Q01DX009 (ip), vehicle: water) was 161 % of control.

With CCCCCCCCN(C)/N=N/c1nc[nH]c1C(N)=O the T/C (dose: 37.5 mg/kg/injection, schedule: Q01DX009 (ip), vehicle: saline with Tween-80) was 121 % of control and the T/C (dose: 75.0 mg/kg/injection, schedule: Q01DX009 (ip), vehicle: saline with Tween-80) was 123 % of control.

With O=C1C=C(C2OC(CO)C(O)C2O)C(=O)N1 (stereo not given) the T/C [6] was 107 % of control and the T/C [7] was 99 % of control and 102 % of control.

In the case of NP(Cl)(c1ccccc1)(c1ccccc1)c1ccccc1, the T/C (dose: 0.1 mg/kg/injection, schedule: Q01DX009 (ip), vehicle: Klucel (hydroxypropylcellulose) (HPC)) is reported as 103 % of control, the T/C (dose: 0.2 mg/kg/injection, schedule: Q01DX009 (ip), vehicle: Klucel (hydroxypropylcellulose) (HPC)) is reported as 96 % of control and the T/C [4] is reported as 100 % of control.

NC(=O)NO was tested, and the T/C (dose: 37.5 mg/kg/injection, schedule: Q03HX024 (ip), vehicle: saline) was 95 % of control and 100 % of control, the T/C (dose: 75.0 mg/kg/injection, schedule: Q03HX024 (ip), vehicle: saline) was 95 % of control and the T/C (dose: 150.0 mg/kg/injection, schedule: Q01DX009 (ip), vehicle: water) was 95 % of control. For the same molecule, the T/C (dose: 150.0 mg/kg/injection, schedule: Q01DX017 (ip), vehicle: water) was 93 % of control, the T/C (dose: 150.0 mg/kg/injection, schedule: Q## X009 (ip), vehicle: water) was 95 % of control and the T/C (dose: 300.0 mg/kg/injection, schedule: Q01DX009 (ip), vehicle: water) was 100 % of control. For the same molecule, the T/C (dose: 300.0 mg/kg/injection, schedule: Q01DX017 (ip), vehicle: water) was 97 % of control, the T/C (dose: 300.0 mg/kg/injection, schedule: Q## X009 (ip), vehicle: water) was 93 % of control and the T/C (dose: 600.0 mg/kg/injection, schedule: Q## X009 (ip), vehicle: water) was 100 % of control. For the same molecule, the T/C (dose: 2400.0 mg/kg/injection, schedule: Q01DX001 (ip), vehicle: water) was 100 % of control.

For COc1cc2cc3c4cc(OC)c(OC)cc4cc[n+]3c(C)c2cc1OC, the T/C (dose: 400.0 mg/kg/injection, schedule: Q01DX009 (ip), vehicle: saline sonified) was 86 % of control.

CC(=O)c1ccc(F)cc1 was tested, and the T/C (dose: 25.0 mg/kg/injection, schedule: Q01DX009 (ip), vehicle: Klucel (hydroxypropylcellulose) (HPC)) was 100 % of control, the T/C (dose: 50.0 mg/kg/injection, schedule: Q01DX009 (ip), vehicle: Klucel (hydroxypropylcellulose) (HPC)) was 106 % of control and the T/C [8] was 103 % of control. For the same molecule, the T/C (dose: 200.0 mg/kg/injection, schedule: Q01DX009 (ip), vehicle: Klucel (hydroxypropylcellulose) (HPC)) was 106 % of control.

CN(Cc1cnc2nc(N)nc(N)c2n1)c1ccc(C(=O)NC(CCC(=O)O)C(=O)O)cc1Br (stereo not given) was tested, and the T/C (dose: 0.17 mg/kg/injection, schedule: Q01DX011 (ip), vehicle: saline) was 101 % of control, the T/C (dose: 0.35 mg/kg/injection, schedule: Q01DX011 (ip), vehicle: saline) was 105 % of control and the T/C (dose: 0.63 mg/kg/injection, schedule: Q01DX009 (ip), vehicle: other) was 101 % of control. The T/C (dose: 0.7 mg/kg/injection, schedule: Q01DX011 (ip), vehicle: saline) was 101 % of control and the T/C (dose: 1.25 mg/kg/injection, schedule: Q01DX009 (ip), vehicle: other) was 113 % of control.

In the case of CC(=O)CC(=O)N1CCN(C(=O)CC(C)=O)CC1, the T/C (dose: 100.0 mg/kg/injection, schedule: Q01DX009 (ip), vehicle: saline) is reported as 87 % of control, the T/C (dose: 200.0 mg/kg/injection, schedule: Q01DX009 (ip), vehicle: saline) is reported as 87 % of control and the T/C (dose: 400.0 mg/kg/injection, schedule: Q01DX009 (ip), vehicle: saline) is reported as 91 % of control.

With C=C(C)C1CCC2(C=O)CCC3(C)C(CCC4C5(C)CCC(O)C(C)(C)C5CCC43C)C12 (stereo not given) the T/C (dose: 18.75 mg/kg/injection, schedule: Q01DX009 (ip), vehicle: Klucel (hydroxypropylcellulose) (HPC)) was 94 % of control and the T/C (dose: 75.0 mg/kg/injection, schedule: Q01DX009 (ip), vehicle: Klucel (hydroxypropylcellulose) (HPC)) was 97 % of control.

For Cc1cccc(C)c1NC(=S)N(C)C, the T/C [5] was 102 % of control, the T/C (dose: 3.13 mg/kg/injection, schedule: Q01DX009 (ip), vehicle: saline with Tween-80) was 110 % of control and the T/C [6] was 100 % of control. For the same molecule, the T/C (dose: 6.25 mg/kg/injection, schedule: Q01DX009 (ip), vehicle: saline with Tween-80) was 115 % of control, the T/C [7] was 91 % of control and 100 % of control and the T/C (dose: 12.5 mg/kg/injection, schedule: Q01DX009 (ip), vehicle: saline with Tween-80) was 112 % of control.

For CCc1cc(C)cc(OC(=O)Nc2ccccc2)c1, the T/C [1] was 97 % of control, the T/C [2] was 93 % of control and the T/C [3] was 100 % of control.
